Structures can show the parent of a compound that is named as a salt.
How the values were obtained:
[1] = tested on: postmenopausal women with frequent, moderate to severe vasomotor symptoms (hot flashes); experiment: Phase 2a study: hot flash frequency, severity and composite score; format: in vivo, human (postmenopausal women); conditions: for Composite Scores by Week: mean; for Mean Severity Scores by Week / Weekly Mean Frequency of Mild, Moderate and Severe Hot Flash Numbers / Weekly Mean Frequency of Moderate and Severe Hot Flash Numbers: mean (SD)
Source text: A phase 2a study was undertaken to assess the effect of (R)-6-(2-(ethyl(4-(2-(ethylamino)ethyl)benzyl)amino)-4-methoxyphenyl)-5,6,7,8-tetrahydronaphthalen-2-ol dihydrochloride (referred to as “drug” in tables below) to alleviate hot flashes in postmenopausal women. The study design and objectives are detailed below.
This is a randomized, placebo-controlled, double-blind, parallel-group, Phase 2, multi-center, dose-finding study to evaluate the effects of (R)-6-(2-(ethyl(4-(2-(ethylamino)ethyl)benzyl)amino)-4-methoxyphenyl)-5,6,7,8-tetrahydronaphthalen-2-ol dihydrochloride in the treatment of vasomotor symptoms in postmenopausal women.
A total of 100 eligible patients will be randomized to receive one of 5 blinded treatment regimens. (R)-6-(2-(ethyl(4-(2-(ethylamino)ethyl)benzyl)amino)-4-methoxyphenyl)-5,6,7,8-tetrahydronaphthalen-2-ol dihydrochloride at doses 0, 10, 25, 50 or 100 mg will be dosed for 28-days.
Patients will document in real time hot flash frequency and severity according to a predetermined scale, in the provided electronic or paper Study Diary. Study Diary entries of hot flash frequency and severity and associated symptoms will be reviewed at each study visit. Serum markers of estrogen effect will be measured at specific study visits while on treatment.
The efficacy endpoints assessed are: • Change in frequency of hot flashes over time • Change in severity of hot flashes over time; • Change in composite score of hot flashes over time (frequency×severity)
(R)-6-(2-(ethyl(4-(2-(ethylamino)ethyl)benzyl)amino)-4-methoxyphenyl)-5,6,7,8-tetrahydronaphthalen-2-ol dihydrochloride was provided by sponsor in capsule form for oral administration. All doses (0, 10, 25, 50 and 100 mg) were provided as identical presentations. Each patient was provided with 2 containers of 28-capsules each at the start of treatment and took one capsule from each container every day for 28-days. Placebo contained the same excipients as active medication, but without (R)-6-(2-(ethyl(4-(2-(ethylamino)ethyl)benzyl)amino)-4-methoxyphenyl)-5,6,7,8-tetrahydronaphthalen-2-ol dihydrochloride. The patients were instructed to take the capsules orally in the fasted state (morning).
Changes in the efficacy endpoints of frequency, severity, and composite score of hot flashes over time; associated hot flash symptoms (palpitations, insomnia, joint aches, and headaches), PD markers of estrogen effect (FSH, LH, and lipid profile), drug levels, and MRS were to be summarized using descriptive statistics. Frequency, severity, and composite score of hot flashes over time were to be analyzed using repeated measures analysis of variance (ANOVA) with factors for treatment (treatment groups), time (study day) and their interaction. A linear trend test for treatment groups (placebo, and 10, 25, 50, 100 mg doses of drug) and for study day as well as any potential interaction between the two was to be included as part of the analyses by including both dose and time as continuous variables in the ANOVA model. Pair-wise comparisons of change from baseline were to be tested between the placebo group and each drug dose group for each timepoint; the mean difference together with a 95% confidence interval of the difference was to be presented for placebo compared with each active treatment group. Nominal p-values at Week 4 were to be presented. In addition, graphical presentations of mean (±standard error of the mean) and percent group responses over time together with repeated measures ANOVA to assess potential trend in responses over time in each dose group were to be presented. For the associated vasomotor symptoms (palpitations, insomnia, joint aches, and headaches collected in the patient diaries), patient and event frequencies were to be summarized by treatment week and treatment group.
Hot flashes were also scored according to their severity with a mild hot flash scored a “1”, a moderate hot flash scored a “2” and a severe hot flash scored a “3”. […]

endometrium = experiment: Preclinical rat models measuring estrogenic agonist effects on the endometrium; format: in vivo
Source text: The results of a phase 2a clinical study assessing the effects of the selective estrogen receptor modulator (SERM) (R)-6-(2-(ethyl(4-(2-(ethylamino)ethyl)benzyl)amino)-4-methoxyphenyl)-5,6,7,8-tetrahydronaphthalen-2-ol on women suffering from hot flushes are reported herein.

CCNCCc1ccc(CN(CC)c2cc(OC)ccc2[C@@H]2CCc3cc(O)ccc3C2)cc1 [drug, (R)-6-(2-(ethyl(4-(2-(ethylamino)ethyl)benzyl)amino)-4-methoxyphenyl)-5,6,7,8-tetrahydronaphthalen-2-ol dihydrochloride]
Composite Scores by Week ([1]; 10 mg daily PO, Week 1, ITT): 73.68
Mean Severity Scores by Week ([1]; 10 mg daily PO, Week 1, ITT): 1.99 (0.460)
Weekly Mean Frequency of Mild, Moderate and Severe Hot Flash Numbers ([1]; 10 mg daily PO, Week 1, ITT): 36.0 (18.97)
Weekly Mean Frequency of Moderate and Severe Hot Flash Numbers ([1]; 10 mg daily PO, Week 1, ITT): 30.4 (18.92)
Composite Scores by Week ([1]; 10 mg daily PO, Week 2, ITT): 47.75
Mean Severity Scores by Week ([1]; 10 mg daily PO, Week 2, ITT): 1.80 (0.514)
Weekly Mean Frequency of Mild, Moderate and Severe Hot Flash Numbers ([1]; 10 mg daily PO, Week 2, ITT): 27.2 (15.16)
Weekly Mean Frequency of Moderate and Severe Hot Flash Numbers ([1]; 10 mg daily PO, Week 2, ITT): 18.5 (13.34)
Composite Scores by Week ([1]; 10 mg daily PO, Week 3, ITT): 37.15
Mean Severity Scores by Week ([1]; 10 mg daily PO, Week 3, ITT): 1.84 (0.570)
Weekly Mean Frequency of Mild, Moderate and Severe Hot Flash Numbers ([1]; 10 mg daily PO, Week 3, ITT): 21.2 (12.99)
Weekly Mean Frequency of Moderate and Severe Hot Flash Numbers ([1]; 10 mg daily PO, Week 3, ITT): 14.5 (11.92)
Composite Scores by Week ([1]; 10 mg daily PO, Week 4, ITT): 34.35
Mean Severity Scores by Week ([1]; 10 mg daily PO, Week 4, ITT): 1.86 (0.562)
Weekly Mean Frequency of Mild, Moderate and Severe Hot Flash Numbers ([1]; 10 mg daily PO, Week 4, ITT): 19.1 (12.95)
Weekly Mean Frequency of Moderate and Severe Hot Flash Numbers ([1]; 10 mg daily PO, Week 4, ITT): 13.4 (11.54)
reduction in severity of hot flashes compared with other groups ([1]; 10 mg dose vs placebo and 25, 50, 100 mg, Table 8 / FIG. 3): greatest reduction in severity of hot flashes at all time points
reduction in moderate and severe hot flashes compared with other groups ([1]; 10 mg group vs placebo and 25, 50, 100 mg, Table 6 / FIG. 1): greatest reduction in hot flashes at each weekly time point
reduction in all (mild, moderate and severe) hot flashes compared with other groups ([1]; 10 mg group vs placebo and 25, 50, 100 mg, Table 7): greatest reduction in hot flashes at each weekly time point
composite score reduction compared with other groups ([1]; 10 mg group vs placebo and 25, 50, 100 mg, Table 9 / FIG. 4): greatest composite score reduction at each weekly timepoint
Weekly Mean Frequency of Mild, Moderate and Severe Hot Flash Numbers ([1]; 10 mg group, Baseline, ITT): 66.0 (13.89)
Weekly Mean Frequency of Moderate and Severe Hot Flash Numbers ([1]; 10 mg group, Baseline, ITT): 63.1 (14.23)
Mean Severity Scores by Week ([1]; 10 mg group, Baseline, ITT, mild=1, moderate=2, severe=3): 2.37 (0.347)
Composite Scores by Week ([1]; 10 mg group, Baseline, ITT, frequency x severity): 156.45
Composite Scores by Week ([1]; 25 mg daily PO, Week 1, ITT): 142.71
Mean Severity Scores by Week ([1]; 25 mg daily PO, Week 1, ITT): 2.12 (0.392)
Weekly Mean Frequency of Mild, Moderate and Severe Hot Flash Numbers ([1]; 25 mg daily PO, Week 1, ITT): 64.4 (48.88)
Weekly Mean Frequency of Moderate and Severe Hot Flash Numbers ([1]; 25 mg daily PO, Week 1, ITT): 57.7 (50.49)
Composite Scores by Week ([1]; 25 mg daily PO, Week 2, ITT): 102.82
Mean Severity Scores by Week ([1]; 25 mg daily PO, Week 2, ITT): 2.09 (0.447)
Weekly Mean Frequency of Mild, Moderate and Severe Hot Flash Numbers ([1]; 25 mg daily PO, Week 2, ITT): 48.0 (48.80)
Weekly Mean Frequency of Moderate and Severe Hot Flash Numbers ([1]; 25 mg daily PO, Week 2, ITT): 42.3 (49.73)
Composite Scores by Week ([1]; 25 mg daily PO, Week 3, ITT): 102.59
Mean Severity Scores by Week ([1]; 25 mg daily PO, Week 3, ITT): 2.14 (0.408)
Weekly Mean Frequency of Mild, Moderate and Severe Hot Flash Numbers ([1]; 25 mg daily PO, Week 3, ITT): 46.6 (56.27)
Weekly Mean Frequency of Moderate and Severe Hot Flash Numbers ([1]; 25 mg daily PO, Week 3, ITT): 43.3 (57.15)
Composite Scores by Week ([1]; 25 mg daily PO, Week 4, ITT): 89.59
Mean Severity Scores by Week ([1]; 25 mg daily PO, Week 4, ITT): 2.06 (0.404)
Weekly Mean Frequency of Mild, Moderate and Severe Hot Flash Numbers ([1]; 25 mg daily PO, Week 4, ITT): 42.4 (53.18)
Weekly Mean Frequency of Moderate and Severe Hot Flash Numbers ([1]; 25 mg daily PO, Week 4, ITT): 37.4 (54.76)
Weekly Mean Frequency of Mild, Moderate and Severe Hot Flash Numbers ([1]; 25 mg group, Baseline, ITT): 75.8 (46.46)
Weekly Mean Frequency of Moderate and Severe Hot Flash Numbers ([1]; 25 mg group, Baseline, ITT): 65.9 (44.30)
Mean Severity Scores by Week ([1]; 25 mg group, Baseline, ITT, mild=1, moderate=2, severe=3): 2.26 (0.348)
Composite Scores by Week ([1]; 25 mg group, Baseline, ITT, frequency x severity): 165.47
Composite Scores by Week ([1]; 50 mg daily PO, Week 1, ITT): 104.35
Mean Severity Scores by Week ([1]; 50 mg daily PO, Week 1, ITT): 1.92 (0.402)
Weekly Mean Frequency of Mild, Moderate and Severe Hot Flash Numbers ([1]; 50 mg daily PO, Week 1, ITT): 54.0 (27.15)
Weekly Mean Frequency of Moderate and Severe Hot Flash Numbers ([1]; 50 mg daily PO, Week 1, ITT): 41.7 (23.79)
Composite Scores by Week ([1]; 50 mg daily PO, Week 2, ITT): 87.78
Mean Severity Scores by Week ([1]; 50 mg daily PO, Week 2, ITT): 1.88 (0.535)
Weekly Mean Frequency of Mild, Moderate and Severe Hot Flash Numbers ([1]; 50 mg daily PO, Week 2, ITT): 45.8 (25.16)
Weekly Mean Frequency of Moderate and Severe Hot Flash Numbers ([1]; 50 mg daily PO, Week 2, ITT): 32.8 (25.52)
Composite Scores by Week ([1]; 50 mg daily PO, Week 3, ITT): 77.67
Mean Severity Scores by Week ([1]; 50 mg daily PO, Week 3, ITT): 1.86 (0.544)
Weekly Mean Frequency of Mild, Moderate and Severe Hot Flash Numbers ([1]; 50 mg daily PO, Week 3, ITT): 40.5 (22.37)
Weekly Mean Frequency of Moderate and Severe Hot Flash Numbers ([1]; 50 mg daily PO, Week 3, ITT): 29.6 (25.09)
Composite Scores by Week ([1]; 50 mg daily PO, Week 4, ITT): 75.06
Mean Severity Scores by Week ([1]; 50 mg daily PO, Week 4, ITT): 1.83 (0.568)
Weekly Mean Frequency of Mild, Moderate and Severe Hot Flash Numbers ([1]; 50 mg daily PO, Week 4, ITT): 37.9 (23.45)
Weekly Mean Frequency of Moderate and Severe Hot Flash Numbers ([1]; 50 mg daily PO, Week 4, ITT): 29.4 (26.53)
Weekly Mean Frequency of Mild, Moderate and Severe Hot Flash Numbers ([1]; 50 mg group, Baseline, ITT): 76.0 (36.96)
Weekly Mean Frequency of Moderate and Severe Hot Flash Numbers ([1]; 50 mg group, Baseline, ITT): 71.9 (36.92)
Mean Severity Scores by Week ([1]; 50 mg group, Baseline, ITT, mild=1, moderate=2, severe=3): 2.14 (0.313)
Composite Scores by Week ([1]; 50 mg group, Baseline, ITT, frequency x severity): 162.19
Composite Scores by Week ([1]; 100 mg daily PO, Week 1, ITT): 104.35
Mean Severity Scores by Week ([1]; 100 mg daily PO, Week 1, ITT): 2.04 (0.334)
Weekly Mean Frequency of Mild, Moderate and Severe Hot Flash Numbers ([1]; 100 mg daily PO, Week 1, ITT): 48.6 (23.32)
Weekly Mean Frequency of Moderate and Severe Hot Flash Numbers ([1]; 100 mg daily PO, Week 1, ITT): 41.9 (24.23)
Composite Scores by Week ([1]; 100 mg daily PO, Week 2, ITT): 87.18
Mean Severity Scores by Week ([1]; 100 mg daily PO, Week 2, ITT): 2.01 (0.406)
Weekly Mean Frequency of Mild, Moderate and Severe Hot Flash Numbers ([1]; 100 mg daily PO, Week 2, ITT): 41.6 (27.37)
Weekly Mean Frequency of Moderate and Severe Hot Flash Numbers ([1]; 100 mg daily PO, Week 2, ITT): 35.6 (28.06)
Composite Scores by Week ([1]; 100 mg daily PO, Week 3, ITT): 59.75
Mean Severity Scores by Week ([1]; 100 mg daily PO, Week 3, ITT): 1.88 (0.473)
Weekly Mean Frequency of Mild, Moderate and Severe Hot Flash Numbers ([1]; 100 mg daily PO, Week 3, ITT): 29.4 (23.91)
Weekly Mean Frequency of Moderate and Severe Hot Flash Numbers ([1]; 100 mg daily PO, Week 3, ITT): 24.5 (24.06)
Composite Scores by Week ([1]; 100 mg daily PO, Week 4, ITT): 43.67
Mean Severity Scores by Week ([1]; 100 mg daily PO, Week 4, ITT): 1.89 (0.484)
Weekly Mean Frequency of Mild, Moderate and Severe Hot Flash Numbers ([1]; 100 mg daily PO, Week 4, ITT): 23.1 (19.45)
Weekly Mean Frequency of Moderate and Severe Hot Flash Numbers ([1]; 100 mg daily PO, Week 4, ITT): 18.6 (19.16)
Weekly Mean Frequency of Mild, Moderate and Severe Hot Flash Numbers ([1]; 100 mg group, Baseline, ITT): 63.6 (13.23)
Weekly Mean Frequency of Moderate and Severe Hot Flash Numbers ([1]; 100 mg group, Baseline, ITT): 58.5 (12.67)
Mean Severity Scores by Week ([1]; 100 mg group, Baseline, ITT, mild=1, moderate=2, severe=3): 2.21 (0.330)
Composite Scores by Week ([1]; 100 mg group, Baseline, ITT, frequency x severity): 140.35
estrogen agonist stimulation effects on the endometrium (endometrium): negligible estrogen agonist stimulation effects

Source: US9555014B2, “Therapeutic regimens” (Radius Health, Inc., priority 2010, dated 2017)
